This data set in a line: Preliminary pharmacokinetic analysis of absorption throughout the GI tract. In kind it is in vivo. From the text:
In one aspect of the invention, the pharmaceutical composition enables the Factor Xa inhibitor to be absorbed throughout the GI tract, i.e. in the duodenum (proximal small intestine), ileum (distal small intestine) and cecum/colon. […] Accordingly, this comprises a further aspect of the invention.

1 molecule from US20090285887A1, “Pharmaceutical Composition Comprising A Plurality of Mini-Tablets Comprising A Factor XA Inhibitor” (priority 2006, published 2009) can be followed below.

Molecules are shown by their SMILES.

As for `C[C@@H](C(=O)N1CCOCC1)N1CC[C@H](NS(=O)(=O)/C=C/c2ccc(Cl)s2)C1=O` [Compound A, (E)-2-(5-chlorothien-2-yl)-N-{(3S)-1-[(1S)-1-methyl-2-morpholin-4-yl-2-oxoethyl]-2-oxopyrrolidin-3-yl}ethenesulfonamide], the “absorption throughout the GI tract” value is recorded as “may be absorbed throughout the GI tract”.
